Experimental data: ChEMBL document CHEMBL4334440, “Osteoclastogenesis Regulation Metabolites from the Coral-Associated Fungus Pseudallescheria boydii TW-1024-3” (J Nat Prod, 2019)
Active and inactive are the calls of the source. The calls are words filed in the database; no cut-off is given here.

Tests used:
BMDM [1] = assay: Cytotoxicity against C57BL/6J mouse Bone marrow macrophage cells assessed as reduction in cell viability at < 10 uM after 48 hrs by CCK-8 assay; format: cell-based
BMDM [2] = assay: Effect on RANKL/M-CSF-induced osteoclastogenesis in C57BL/6J mouse Bone marrow macrophage cells assessed as increase in number of osteoclasts at 1 uM compound for every 2 days and measured after 7 days by TRAP staining based light microscopic method; format: functional, cell-based
BMDM [3] = assay: Effect on RANKL/M-CSF-induced osteoclastogenesis in C57BL/6J mouse Bone marrow macrophage cells assessed as increase in number of osteoclasts at 0.1 uM compound for every 2 days and measured after 7 days by TRAP staining based light microscopic method; format: functional, cell-based
BMDM [4] = assay: Inhibition of RANKL/M-CSF-induced osteoclastogenesis in C57BL/6J mouse Bone marrow macrophage cells assessed as decrease in area of osteoclasts at 0.1 to 1 uM compound for every 2 days and measured after 7 days by TRAP staining based light microscopic method; format: functional, cell-based
BMDM [5] = assay: Inhibition of RANKL/M-CSF-induced osteoclastogenesis in C57BL/6J mouse Bone marrow macrophage cells assessed as decrease in number of osteoclasts at 0.1 to 1 uM compound for every 2 days and measured after 7 days by TRAP staining based light microscopic method; format: functional, cell-based
BMDM [6] = assay: Effect on RANKL/M-CSF-induced osteoclastogenesis in C57BL/6J mouse Bone marrow macrophage cells assessed as increase in number of osteoclasts at 0.1 to 1 uM compound for every 2 days and measured after 7 days by TRAP staining based light microscopic method; format: functional, cell-based
BMDM [7] = assay: Effect on RANKL/M-CSF-induced osteoclastogenesis in C57BL/6J mouse Bone marrow macrophage cells assessed as increase in area of osteoclasts at 0.1 uM compound for every 2 days and measured after 7 days by TRAP staining based light microscopic method; format: functional, cell-based

SMILES	Activity (BMDM [1])	also measured
CC(C)=CC[C@H]1O[C@]1(C)[C@]1(CO)OC(=O)CC[C@]1(O)CCl	Non-Toxic	Activity (BMDM [2]): Active
C=C1CCC2(O)CC1C2(C)[C@H](O)CC=C(C)C (some centres undefined)	Non-Toxic	–
CC[C@@H]1O[C@]2(C[C@H](O)C1(C)C)OC(=O)C[C@@H]2NC(C)=O	Non-Toxic	–
CO[C@@H]1[C@H](O)CC[C@]2(O)C[S+]([O-])[C@@H](CC=C(C)C)[C@](C)(O)[C@@]12O (some centres undefined)	Non-Toxic	–
CC/C=C\[C@H](O)[C@H](O)C1=C(C)C(=O)[C@]2(O1)C(=O)N[C@@](OC)(C(=O)c1ccccc1)[C@@H]2O [PSEUROTIN A]	Non-Toxic	Activity (BMDM [3]): Active
CO[C@@H]1C(=O)CC[C@](O)(CCl)[C@@]1(O)[C@@]1(C)O[C@@H]1CC=C(C)C	Non-Toxic	inhibition (BMDM [4]): Active; inhibition (BMDM [5]): Active
CO[C@@H]1C(=O)CC[C@]2(O)C[S+]([O-])[C@@H](CC=C(C)C)[C@](C)(O)[C@@]12O (some centres undefined)	Non-Toxic	–
CO[C@@H]1C(=O)CC[C@]2(O)CO[C@@H](CC=C(C)C)[C@](C)(O)[C@@]12O	Non-Toxic	Activity (BMDM [6]): Active; Activity (BMDM [7]): Active
C=C1CC[C@@]2(O)C[C@@H]1[C@](C)(O)C(=O)[C@H]2C=C(C)C	Non-Toxic	–
CO[C@@H]1C(=O)CC[C@]2(CO2)[C@@]1(O)[C@@]1(C)O[C@@H]1CC=C(C)C [OVALICIN]	Non-Toxic	–
C=C1CC[C@@]2(O)C[C@@H]1[C@@](C)(O)C(=O)[C@H]2C=C(C)C	Non-Toxic	Activity (BMDM [6]): Active; Activity (BMDM [7]): Active
